We go through six sequences from PMC10650108 (Molecules, 2023).

Series [1] is described as follows: mixed-gender human liver microsomes (10-Donor Pool) in PBS with MgCl2 and NADPH. The settings on record: 37 °C, up to 2 h. (Liver microsomes are a subcellular fraction often used to study metabolism.)
A short description of series [2]: in vitro plasma metabolism. The settings on record: cited from earlier work.
Series [3] can be described thus: mixed-gender human skin S9 (3-Donor Pool) in PBS. Particulars: 37 °C, up to 2 h.
The nature of series [4]: In vitro metabolic incubation with human liver microsomes, UHPLC-HRMS metabolite profiling. The format is in vitro ADME. Particulars: 37 °C, 2 h. Here is the method:
(§1) Mixed-gender human liver microsomes (10-Donor Pool, total protein concentration of 20 mg/mL) and mixed-gender human skin S9 (3-Donor Pool, total protein concentration of 1.89 mg/mL) were purchased from BioreclamationIVT (Westbury, NY, USA). Phosphate buffered saline (PBS, pH 7.2~7.4) was obtained from Sangon Biotech Co., Ltd. (Shanghai, China). BPC-157 (HPLC purity > 99%) and (Deamino-cysl, val4, D-arg8)-Vasopressin (DCVDV, internal standard, ISTD) were purchased from Alta Scientific Co., Ltd. (Tianjin, China). ^13C6,^15N2-BPC-157 (labeled BPC-157, HPLC purity > 98%) was purchased from Synpeptide Co., Ltd. (Nanjing, China). BPC-157 (2–15) free acid, BPC-157 (1–13) free acid, BPC-157 (2–13) free acid, BPC-157 (1–12) free acid, BPC-157 (3–15) free acid, BPC-157 (1–8) free acid, and BPC-157 (2–8) free acid were synthesized by Alta Scientific Co., Ltd. (Tianjin, China). MgCl2 was from Beyotime Biotechnology (Shanghai, China). Nicotinamide adenine dinucleotide phosphate (NADPH) was purchased from Vetec (Shanghai, China). Acetonitrile (ACN), methanol (MeOH), and formic acid (FA) were of LC-MS grade and were obtained from Thermo Fisher Scientific (San Jose, CA, USA). Milli-Q purified water (MerckMillipore, Vimodrone, Milan, Italy) was used for sample preparation, reference material dilution, and LC mobile phase preparation. […]

Series [5] is described as follows: In vitro metabolic incubation with human skin S9, UHPLC-HRMS metabolite profiling. The settings on record: human skin S9 0.189 mg/mL, 37 °C, 2 h. The format is in vitro ADME. As to the method:
as §1

Entries after “also recorded” stand apart in the source; their conditions may differ. Ends that are not written are not given here.

For the sequence GEPPPGKPADDAGLV [labeled BPC-157], the fragment found entry in series [1] was “labeled M9”.
For the sequence GEPPPGKPADDAGLV [BPC-157], the fragment found result is given as “BPC-157 (2–15) free acid (M8), major; also recorded: BPC-157 (2–13) free acid” in series [2]; “BPC-157 (1–14) free acid (M6), GEPPPGKPADDAGL; also recorded: BPC-157 (2–8) free acid (M1), EPPPGKP, major; also recorded: BPC-157 (1–8) free acid (M2), GEPPPGKP, major; also recorded: BPC-157 (1–13) free acid (M4), GEPPPGKPADDAG, major” in series [3]; “BPC-157 (1–14) free acid (M6), GEPPPGKPADDAGL; also recorded: BPC-157 (2–8) free acid (M1), EPPPGKP, major; also recorded: BPC-157 (1–8) free acid (M2), GEPPPGKP, major; also recorded: BPC-157 (1–13) free acid (M4), GEPPPGKPADDAG, major” in series [1]. Also, the cleaved bond entry is “glycine1-E2, major” in series [3] and “glycine1-E2, major” in series [1].
“EPPPGKPADDAGLV [BPC-157 (2–15) free acid (M8), BPC-157 (2–15) free acid]”: the “Relative response of metabolites (relative abundance)” value in series [4] (both incubation systems (human liver microsomes and human skin S9), relative to the most abundant metabolite M8) was “most abundant metabolite in both incubation systems”.
Regarding “EPPPGKPADDAGL [BPC-157 (2–14) free acid (M5), BPC-157 (2–14) free acid]”, the “Detection of metabolite in the human skin S9 incubation system (in words)” value in series [5] is recorded as “only detected in the human skin S9 incubation system”.
“GKPADDAGLV [BPC-157 (6–15) free acid (M7), BPC-157 (6–15) free acid]”: in series [5], the “Detection of metabolite in the human skin S9 incubation system (in words)” value was “only detected in the human skin S9 incubation system”.
Regarding “EPPPGKPADDAG [BPC-157 (2–13) free acid (M3), BPC-157 (2–13) free acid]”, the “Detection of metabolite in the human liver microsome incubation system (in words)” value in series [4] (human liver microsomes 1 mg/mL, NADPH, UHPLC-HRMS) was “only detected in the human liver microsome incubation system”.
